The results in this text go back to article PMC9571408, “Synthesis of Isomeric 3-Benzazecines Decorated with Endocyclic Allene Moiety and Exocyclic Conjugated Double Bond and Evaluation of Their Anticholinesterase Activity” (Molecules, 2022).

The target in data set [1] is T1, human recombinant monoamine oxidase A (Homo sapiens, UniProt P21397).
T1 construct: purchased Sigma Aldrich; host or cells: baculovirus infected insect cells (microsomes)
T1 sequence (P21397 1-527): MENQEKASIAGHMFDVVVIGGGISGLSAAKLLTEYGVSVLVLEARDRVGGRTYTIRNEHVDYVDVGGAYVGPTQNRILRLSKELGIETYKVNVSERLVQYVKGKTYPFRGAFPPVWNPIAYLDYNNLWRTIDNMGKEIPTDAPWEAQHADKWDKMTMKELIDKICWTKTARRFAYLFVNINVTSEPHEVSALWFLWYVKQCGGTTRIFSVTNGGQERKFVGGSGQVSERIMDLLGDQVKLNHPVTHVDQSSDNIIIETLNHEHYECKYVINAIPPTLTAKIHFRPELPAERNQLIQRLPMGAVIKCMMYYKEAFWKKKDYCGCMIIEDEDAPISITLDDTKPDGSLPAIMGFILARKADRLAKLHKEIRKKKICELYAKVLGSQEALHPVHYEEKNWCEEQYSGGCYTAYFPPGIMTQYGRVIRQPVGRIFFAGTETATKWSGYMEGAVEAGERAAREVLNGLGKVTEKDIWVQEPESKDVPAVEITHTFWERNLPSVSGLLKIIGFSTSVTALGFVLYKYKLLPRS
The data set can be described thus: Inhibition of MAO-A, kynuramine fluorescence assay. It is filed as biochemical. Particulars: mean ± SD. The procedure:
(§1) Herein, a number of newly and previously synthesized 3-benzazecine analogs, including either allene (Figure 1, scaffold A) or 6- and 8-ylidene (B and C) derivatives, were firstly assayed as inhibitors of AChE, BChE, and MAOs at 10 μM concentration.
(§2) Inhibition of human recombinant monoamine oxidases A (250 U/mg) and B (59 U/mg; microsomes from baculovirus infected insect cells; Sigma Aldrich) was determined as already described, measuring the fluorescence of 4-hydroxyquinoline produced by MAOs in the oxidative deamination of substrate kynuramine. Briefly, compounds were tested in coincubation with MAO and kynuramine in phosphate buffer 390 mOsm pH 7.4, at 37 °C for 30 min. Assays were performed in 96-well black polystyrene plates (Greiner) using the Infinite M1000 Pro plate reader (Tecan). Inhibition data were obtained as means ± SD using GraphPad Prism.

Another data set concerns the target human recombinant AChE (Homo sapiens, UniProt P22303). Particulars: for IC50: read-out: hAChE half-maximal inhibitory concentration, mean ± SD of three independent measurements, unit from b17 (low μM range). The procedure:
as §1
(§3) Inhibition of human recombinant AChE (2770 U/mg) or BChE from human serum (50 U/mg) was determined as described using the Ellman spectrophotometric method in a 96-well plate procedure. Briefly, test compounds were incubated in phosphate buffer pH 8.0 in the presence of the enzyme and 5,5′-dithiobis-(2-nitrobenzoic acid) (DTNB) as the chromophoric reagent. Incubation samples were made in 96-well, flat-bottomed transparent polystyrene plates (Greiner Bio-One, Kremsmünster, Austria), at 25 °C for 20 min, and read at 412 nm using an Infinite M1000 Pro plate reader (Tecan, Cernusco s.N., Italy). For inhibition kinetics, four concentrations of compound 3e (ranging from 0 to 15 μM), and six concentrations of acetylthiocholine (from 33 to 200 μM) were used. Inhibition data and kinetics were obtained as means ± SD from 3 independent experiments, using GraphPad Prism (version 5.00 for Windows; GraphPad Software, San Diego, CA, USA).

A further data set concerns the target BChE from human serum (Homo sapiens, UniProt P06276). Conditions: screened at 10 μM; n.i. = no inhibition. The procedure: as §1, §3
In data set [2] the target is T2, human recombinant monoamine oxidase B (Homo sapiens, UniProt P27338).
T2 construct: purchased Sigma Aldrich; host or cells: baculovirus infected insect cells (microsomes)
T2 sequence (P27338 1-520): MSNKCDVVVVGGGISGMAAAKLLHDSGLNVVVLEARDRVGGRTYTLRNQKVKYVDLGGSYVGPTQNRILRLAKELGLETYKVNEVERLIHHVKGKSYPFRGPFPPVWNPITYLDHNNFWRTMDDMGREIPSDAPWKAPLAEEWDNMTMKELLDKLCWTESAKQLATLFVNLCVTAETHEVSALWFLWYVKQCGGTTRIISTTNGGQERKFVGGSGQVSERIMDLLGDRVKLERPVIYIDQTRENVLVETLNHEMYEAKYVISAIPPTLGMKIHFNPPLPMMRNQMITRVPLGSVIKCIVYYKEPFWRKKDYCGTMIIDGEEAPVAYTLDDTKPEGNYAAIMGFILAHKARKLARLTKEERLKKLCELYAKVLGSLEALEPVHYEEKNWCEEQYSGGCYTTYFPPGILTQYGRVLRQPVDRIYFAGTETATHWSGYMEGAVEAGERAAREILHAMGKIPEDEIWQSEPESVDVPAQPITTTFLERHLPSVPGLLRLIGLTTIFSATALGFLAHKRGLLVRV
Briefly: Inhibition of MAO-B, kynuramine fluorescence assay. It counts as biochemical. Conditions: mean ± SD. The procedure: as §1, §2

Data set [3] is described as follows: Kinetic aqueous solubility by U-HPLC. The procedure:
Following shaking of the suspension in an orbital shaker at 250 rpm for 2 h, the solution was separated by centrifugation (2500 rpm, 3 min) and filtered. Equal volume of solution was transferred into 1:1 (v/v) mixture of DMSO/PBS. The concentration of compound was determined by U-HPLC and UV detector (255 nm) comparing the peak area of external standard solution. All data were means of 3 independent experiments (± SEM). […] HPLC analyses were performed on an Agilent U-HPLC 1260 Infinity Quaternary LC system (Agilent Technologies, Milan, Italy) (Table 4).

A short description of data set [4]: Hydrolytic stability in water-buffered solution by U-HPLC. Particulars: PBS pH 7.4, 0.15 M KCl, 37 °C (table footnote). The procedure:
At appropriate time intervals, samples were withdrawn and analyzed by U-HPLC using a 1290 Infinity Quaternary LC system (Agilent Technologies, Milan, Italy) equipped with autosampler and photodiode array detector. A Phenomenex Kinetex C18 column 2.6 µm (150 × 2.1 mm i.d.) was used as stationary phase. […] Pseudo-first-order rate constants (kobs) for the hydrolysis of the compound were calculated from the slopes of the linear plots of log (% remaining compound) against time.

The structures appear in SMILES notation. Converted amounts (≈) assume the structure as drawn. “And” between values parts separate entries of the source, which are not always exact repeats. Equal values may be shown once.

Sequence of human recombinant AChE (P22303 32-614): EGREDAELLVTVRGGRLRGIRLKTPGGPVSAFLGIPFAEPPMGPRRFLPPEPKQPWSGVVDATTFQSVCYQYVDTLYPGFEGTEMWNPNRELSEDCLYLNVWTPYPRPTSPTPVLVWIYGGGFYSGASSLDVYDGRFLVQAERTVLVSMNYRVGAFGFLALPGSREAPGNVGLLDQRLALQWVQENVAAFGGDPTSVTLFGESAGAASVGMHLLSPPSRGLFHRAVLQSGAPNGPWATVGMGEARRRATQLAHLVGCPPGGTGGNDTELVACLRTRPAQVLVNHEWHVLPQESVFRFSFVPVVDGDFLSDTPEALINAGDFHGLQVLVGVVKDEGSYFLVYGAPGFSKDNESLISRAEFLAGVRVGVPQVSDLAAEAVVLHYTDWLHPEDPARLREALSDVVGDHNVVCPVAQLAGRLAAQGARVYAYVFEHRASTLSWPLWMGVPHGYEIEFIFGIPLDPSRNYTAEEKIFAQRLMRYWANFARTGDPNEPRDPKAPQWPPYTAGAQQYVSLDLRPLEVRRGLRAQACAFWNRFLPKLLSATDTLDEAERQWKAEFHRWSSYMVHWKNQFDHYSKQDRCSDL
Sequence of BChE from human serum (P06276 29-602): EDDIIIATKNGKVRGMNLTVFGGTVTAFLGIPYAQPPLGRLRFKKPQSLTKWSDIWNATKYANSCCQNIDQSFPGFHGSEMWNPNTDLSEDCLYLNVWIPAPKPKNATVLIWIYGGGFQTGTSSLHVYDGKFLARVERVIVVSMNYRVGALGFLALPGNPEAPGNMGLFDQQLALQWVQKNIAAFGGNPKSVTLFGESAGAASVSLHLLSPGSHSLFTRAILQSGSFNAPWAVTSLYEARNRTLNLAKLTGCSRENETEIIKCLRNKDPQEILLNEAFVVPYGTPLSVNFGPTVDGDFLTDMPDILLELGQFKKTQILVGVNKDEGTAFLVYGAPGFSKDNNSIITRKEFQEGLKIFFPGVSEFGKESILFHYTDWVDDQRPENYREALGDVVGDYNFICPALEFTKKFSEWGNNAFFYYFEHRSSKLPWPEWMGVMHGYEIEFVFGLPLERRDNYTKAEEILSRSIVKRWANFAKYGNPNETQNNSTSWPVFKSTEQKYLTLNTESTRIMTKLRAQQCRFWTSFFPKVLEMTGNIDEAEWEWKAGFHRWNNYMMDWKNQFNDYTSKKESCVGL

As for `COCC1=C=C(c2ccc(C)cc2)c2cc(OC)c(OC)cc2CCN(C)C=C1C(=O)OC` [Compound 3d, Methyl 3-methyl-8-(4-methylphenyl)-10,11-dimethoxy-6-(methoxymethyl)-benzo[d]-3-aza-cyclodeca-4,6,7-triene-5-carboxylate], in data set [1], the “hMAO-A % inhibition at 10 μM” value is reported as “(30 ± 4) %”. Besides, the IC50 at human recombinant AChE was 19.3 ± 3.3 µM. Also, the hBChE inhibition entry on BChE from human serum is “n.i”. Further, the “hMAO-B % inhibition at 10 μM” value in data set [2] was “(30 ± 5) %”.

Take `COCC1=C=C(c2ccc(OC)cc2)c2cc(OC)c(OC)cc2CCN(C)C=C1C(=O)OC` [Compound 3e, Methyl 3-methyl-10,11-dimethoxy-6-methoxymethyl-8-(4-methoxyphenyl)-benzo[d]-3-aza-cyclodeca-4,6,7-triene-5-carboxylate]: in data set [3] (3e vs 3n, buffered aqueous solution pH 7.4), the “Water solubility relative to 3n” value came out at 90 fold. In addition, the Solubility (as a rule, how much of the substance goes into solution per volume) in data set [3] (PBS pH 7.4, 0.15 M KCl, 37 °C, kinetic solubility) worked out at 17.4 ± 0.7 µM (≈ 8.1 µg/mL). Also, the “hMAO-A % inhibition at 10 μM” value in data set [1] is given as “(37 ± 5) %”. Further, the Ki – broadly, a dissociation constant, usually derived from enzyme kinetics or from competition with a known ligand – on human recombinant AChE (read-out: AChE inhibition, Ki, Lineweaver–Burk inhibition kinetics, acetylthiocholine substrate) is 4.9 µM and 4.89 µM. Further, the IC50 on human recombinant AChE was determined as 12.2 ± 2.6 µM. The hBChE inhibition entry at BChE from human serum is on record as “n.i”. Further, the “hMAO-B % inhibition at 10 μM” value in data set [2] was “(23 ± 1) %”. For the same compound, the Hydrolytic half-life in data set [4] turned out to be 4.5 h.

On to `COCC1=C=C(c2ccc(C)cc2)c2cc(OC)c(OC)cc2CCN(C)C=C1C(C)=O` [Compound 3i, 1-(3-Methyl-8-(4-methylphenyl)-10,11-dimethoxy-6-methoxymethyl-benzo[d]-3-aza-cyclodeca-4,6,7-trien-5-yl)ethanone], for which the “hMAO-A % inhibition at 10 μM” value in data set [1] is reported as “(28 ± 1) %”. Also, on human recombinant AChE, the IC50 is 32.5 ± 4.4 µM. In addition, on BChE from human serum, the hBChE inhibition entry was “n.i”. Moreover, the “hMAO-B % inhibition at 10 μM” value in data set [2] is “(38 ± 4) %”.

Take `COCC1=C=C(c2ccc(OC)cc2)c2cc(OC)c(OC)cc2CCN(C)C=C1C(C)=O` [Compound 3j, 1-(3-Methyl-10,11-dimethoxy-6-methoxymethyl-8-(4-methoxyphenyl)-benzo[d]-3-aza-cyclodeca-4,6,7-trien-5-yl)ethanone]: the “hMAO-A % inhibition at 10 μM” value in data set [1] is on record as “(29 ± 5) %”. In addition, the IC50 on human recombinant AChE turned out to be 13.2 ± 0.7 µM. The hBChE inhibition result on BChE from human serum is on record as “n.i”. For the same compound, in data set [2], the “hMAO-B % inhibition at 10 μM” value was “(28 ± 5) %”.
